The subject of the assay is BDF1 mice, B16 melanoma s.c., survival/tumor T/C. The assay is described as follows: NCI In Vivo Anticancer Drug Screen. Data for tumor model B16 Melanoma (subcutaneous) in B6D2F1 (BDF1) mice. How it is done: The antitumor activity of compounds was measured in mice bearing transplantable tumors. Survival or tumor size were measured and the results are expressed as the measurement made in the treated group (T) divided by the measurement made in the vehicle treated control group (C). The tumor model used in this assay is B16 Melanoma (subcutaneous) in B6D2F1 (BDF1) mice

The mark [1] stands for this setting: endpoint: median survival time, dose: 4.0 mg/kg/injection, schedule: Q01DX009 (ip), vehicle: saline with Tween-80, higher = longer survival.
The mark [2] stands for this setting: endpoint: median survival time, dose: 6.25 mg/kg/injection, schedule: Q01DX009 (ip), vehicle: saline, higher = longer survival.
Where [3] appears, read: endpoint: median survival time, dose: 12.5 mg/kg/injection, schedule: Q01DX009 (ip), vehicle: saline, higher = longer survival.

Structures are written as SMILES. Where “and” joins values, the source holds several entries; their conditions need not be identical. Equal values may be shown once. Results filed as inconclusive are left out.

For `CN(C)/N=N/c1nc[nH]c1C(N)=O`, the T/C is 101 % of control (endpoint: median survival time, dose: 12.5 mg/kg/injection, schedule: Q01DX009 (ip), vehicle: Klucel (hydroxypropylcellulose) (HPC), higher = longer survival); 89 % of control (endpoint: median survival time, dose: 25.0 mg/kg/injection, schedule: Q01DX009 (ip), vehicle: Klucel (hydroxypropylcellulose) (HPC), higher = longer survival); 175 % of control (endpoint: median survival time, dose: 37.5 mg/kg/injection, schedule: Q01DX009 (ip), vehicle: saline with Tween-80, higher = longer survival); 110 % of control (endpoint: median survival time, dose: 37.5 mg/kg/injection, schedule: Q01DX009 (ip), vehicle: saline, higher = longer survival); 119 % of control (endpoint: median survival time, dose: 50.0 mg/kg/injection, schedule: Q01DX009 (ip), vehicle: Klucel (hydroxypropylcellulose) (HPC), higher = longer survival); 160 % of control (endpoint: median survival time, dose: 75.0 mg/kg/injection, schedule: Q01DX009 (ip), vehicle: Klucel (hydroxypropylcellulose) (HPC), higher = longer survival). The T/C runs as follows: (endpoint: median survival time, dose: 75.0 mg/kg/injection, schedule: Q01DX009 (ip), vehicle: saline with Tween-80, higher = longer survival) 156 % of control; (endpoint: median survival time, dose: 75.0 mg/kg/injection, schedule: Q01DX009 (ip), vehicle: saline, higher = longer survival) 113 % of control; (endpoint: median survival time, dose: 100.0 mg/kg/injection, schedule: Q01DX009 (ip), vehicle: Klucel (hydroxypropylcellulose) (HPC), higher = longer survival) 109 % of control; (endpoint: median survival time, dose: 150.0 mg/kg/injection, schedule: Q01DX009 (ip), vehicle: Klucel (hydroxypropylcellulose) (HPC), higher = longer survival) 91 % of control; (endpoint: median survival time, dose: 150.0 mg/kg/injection, schedule: Q01DX009 (ip), vehicle: saline with Tween-80, higher = longer survival) 154 % of control; (endpoint: median tumor weight (est.), dose: 37.0 mg/kg/injection, schedule: Q01DX009 (ip), vehicle: saline with Tween-80, higher = larger tumour) 50 % of control. Further, the T/C is 110 % of control (endpoint: median tumor weight (est.), dose: 75.0 mg/kg/injection, schedule: Q01DX009 (ip), vehicle: saline with Tween-80, higher = larger tumour); 59 % of control (endpoint: median tumor weight (est.), dose: 150.0 mg/kg/injection, schedule: Q01DX009 (ip), vehicle: Klucel (hydroxypropylcellulose) (HPC), higher = larger tumour); 42 % of control (endpoint: median tumor weight (est.), dose: 150.0 mg/kg/injection, schedule: Q01DX009 (ip), vehicle: saline with Tween-80, higher = larger tumour); 43 % of control (endpoint: median tumor weight (est.), dose: 300.0 mg/kg/injection, schedule: Q01DX009 (ip), vehicle: saline with Tween-80, higher = larger tumour).
Take `CC1(C)N=C(N)N=C(N)N1c1ccc(OCC(=O)N2CCOCC2)c(Cl)c1`: the T/C by setting is: (endpoint: median survival time, dose: 50.0 mg/kg/injection, schedule: Q01DX009 (ip), vehicle: saline, higher = longer survival) 103 % of control; (endpoint: median survival time, dose: 100.0 mg/kg/injection, schedule: Q01DX009 (ip), vehicle: saline, higher = longer survival) 114 % of control.
For `O=c1[nH]c(=O)n(C2CC(O)C(CO)O2)cc1F` (stereo unspecified), the T/C (endpoint: median survival time, dose: 25.0 mg/kg/injection, schedule: Q01DX009 (ip), vehicle: saline with Tween-80, higher = longer survival) is 109 % of control; the T/C (endpoint: median survival time, dose: 100.0 mg/kg/injection, schedule: Q01DX009 (ip), vehicle: saline with Tween-80, higher = longer survival) is 122 % of control; the T/C (endpoint: median survival time, dose: 200.0 mg/kg/injection, schedule: Q01DX009 (ip), vehicle: saline with Tween-80, higher = longer survival) is 120 % of control; the T/C (endpoint: median survival time, dose: 200.0 mg/kg/injection, schedule: Q04DX003 (ip), vehicle: saline, higher = longer survival) was 112 % of control; the T/C (endpoint: median tumor weight (est.), dose: 25.0 mg/kg/injection, schedule: Q01DX009 (ip), vehicle: saline with Tween-80, higher = larger tumour) is 68 % of control; the T/C (endpoint: median tumor weight (est.), dose: 50.0 mg/kg/injection, schedule: Q01DX009 (ip), vehicle: saline with Tween-80, higher = larger tumour) is 59 % of control. Further, the T/C runs as follows: (endpoint: median tumor weight (est.), dose: 50.0 mg/kg/injection, schedule: Q01DX009 (ip), vehicle: saline, higher = larger tumour) 96 % of control and 220 % of control; (endpoint: median tumor weight (est.), dose: 100.0 mg/kg/injection, schedule: Q01DX009 (ip), vehicle: saline with Tween-80, higher = larger tumour) 41 % of control; (endpoint: median tumor weight (est.), dose: 100.0 mg/kg/injection, schedule: Q01DX009 (ip), vehicle: saline, higher = larger tumour) 49 % of control and 71 % of control; (endpoint: median tumor weight (est.), dose: 200.0 mg/kg/injection, schedule: Q01DX009 (ip), vehicle: saline, higher = larger tumour) 55 % of control.
For the compound `NCCc1nc(-c2nc(C(=O)O)cs2)cs1`, the T/C was 98 % of control (endpoint: median survival time, dose: 6.25 mg/kg/injection, schedule: Q01DX009 (ip), vehicle: water, higher = longer survival); 95 % of control (endpoint: median survival time, dose: 12.5 mg/kg/injection, schedule: Q01DX009 (ip), vehicle: water, higher = longer survival); 91 % of control (endpoint: median survival time, dose: 25.0 mg/kg/injection, schedule: Q01DX009 (ip), vehicle: water, higher = longer survival); 92 % of control (endpoint: median survival time, dose: 50.0 mg/kg/injection, schedule: Q01DX009 (ip), vehicle: water, higher = longer survival); 95 % of control (endpoint: median survival time, dose: 100.0 mg/kg/injection, schedule: Q01DX009 (ip), vehicle: water, higher = longer survival).
As to `CC1=C(/C=C/C(C)=C/C=C/C(C)=C/C(=O)O)C(C)(C)CCC1`, under setting [1], the T/C is 88 % of control.
As to `CN(N=O)C(N)=O`, the T/C runs as follows: (endpoint: median survival time, dose: 3.12 mg/kg/injection, schedule: Q01DX009 (ip), vehicle: saline, higher = longer survival) 97 % of control; under setting [2], 105 % of control; under setting [3], 109 % of control.
In the case of `CCCCCc1cc(O)c2c(c1)OC(C)(C)c1ccc(C)cc1-2`, the T/C reads like this: (endpoint: median survival time, dose: 64.0 mg/kg/injection, schedule: Q01DX009 (ip), vehicle: saline, higher = longer survival) 113 % of control; (endpoint: median survival time, dose: 128.0 mg/kg/injection, schedule: Q01DX009 (ip), vehicle: saline, higher = longer survival) 98 % of control; (endpoint: median survival time, dose: 256.0 mg/kg/injection, schedule: Q01DX009 (ip), vehicle: saline, higher = longer survival) 117 % of control; (endpoint: median survival time, dose: 512.0 mg/kg/injection, schedule: Q01DX009 (ip), vehicle: saline, higher = longer survival) 98 % of control.
Turning to `N[C@@H](Cc1ccc(N(CCCl)CCCl)cc1)C(=O)O`, the T/C was 93 % of control (endpoint: median survival time, dose: 1.0 mg/kg/injection, schedule: Q01DX009 (ip), vehicle: saline, higher = longer survival); 150 % of control (endpoint: median survival time, dose: 2.0 mg/kg/injection, schedule: Q01DX009 (ip), vehicle: saline, higher = longer survival); 123 % of control (endpoint: median survival time, dose: 4.0 mg/kg/injection, schedule: Q01DX009 (ip), vehicle: saline, higher = longer survival); 63 % of control (endpoint: median tumor weight (est.), dose: 1.25 mg/kg/injection, schedule: Q01DX009 (ip), vehicle: Klucel (hydroxypropylcellulose) (HPC), higher = larger tumour); 44 % of control (endpoint: median tumor weight (est.), dose: 2.5 mg/kg/injection, schedule: Q01DX009 (ip), vehicle: Klucel (hydroxypropylcellulose) (HPC), higher = larger tumour); 18 % of control (endpoint: median tumor weight (est.), dose: 5.0 mg/kg/injection, schedule: Q01DX009 (ip), vehicle: Klucel (hydroxypropylcellulose) (HPC), higher = larger tumour).
As for `O=NN(CCCl)C(=O)NCCO`, the T/C is 102 % of control (endpoint: median survival time, dose: 2.59 mg/kg/injection, schedule: Q01DX007 (ip), vehicle: water, higher = longer survival) and 98 % of control (endpoint: median survival time, dose: 4.32 mg/kg/injection, schedule: Q01DX007 (ip), vehicle: water, higher = longer survival).
On to `N/C(=N\Cl)C(Cl)(Cl)Cl`, for which the T/C (endpoint: median survival time, dose: 6.25 mg/kg/injection, schedule: Q01DX009 (ip), vehicle: saline with Tween-80, higher = longer survival) was 102 % of control; the T/C (endpoint: median survival time, dose: 12.5 mg/kg/injection, schedule: Q01DX009 (ip), vehicle: saline with Tween-80, higher = longer survival) was 98 % of control; the T/C (endpoint: median survival time, dose: 50.0 mg/kg/injection, schedule: Q01DX009 (ip), vehicle: saline with Tween-80, higher = longer survival) was 94 % of control.
As to `COc1cccc2c1C(=O)c1c(O)c3c(c(O)c1C2=O)C[C@@](O)(C(=O)COC(=O)Cc1cccc2ccccc12)C[C@@H]3OC1CC(N)C(O)C(C)O1` (stereo partly specified), the T/C was 111 % of control (endpoint: median survival time, dose: 1.0 mg/kg/injection, schedule: Q01DX009 (ip), vehicle: saline with Tween-80, higher = longer survival); 114 % of control (endpoint: median survival time, dose: 2.0 mg/kg/injection, schedule: Q01DX009 (ip), vehicle: saline with Tween-80, higher = longer survival); 94 % of control under setting [1].
Consider `O=C(O)CC(NC(=O)CP(=O)(O)O)C(=O)O` (stereo unspecified), for which the T/C reads like this: (endpoint: median survival time, dose: 153.0 mg/kg/injection, schedule: Q01DX009 (ip), vehicle: saline, higher = longer survival) 110 % of control; (endpoint: median survival time, dose: 1140.0 mg/kg/injection, schedule: Q01DX001 (ip), vehicle: saline, higher = longer survival) 114 % of control.
In the case of `COc1cccc2c1C(=O)c1c(O)c3c(c(O)c1C2=O)CC(O)(C(=O)CO)CC3OC1CC(N)C(O)C(C)O1` (stereo unspecified), the T/C is 103 % of control (endpoint: median survival time, dose: 2.9 mg/kg/injection, schedule: Q01DX009 (ip), vehicle: saline, higher = longer survival) and 107 % of control (endpoint: median survival time, dose: 5.8 mg/kg/injection, schedule: Q01DX009 (ip), vehicle: saline, higher = longer survival).
Turning to `CC1(C)N=C(N)N=C(N)N1c1ccc(CCCCc2ccc(S(=O)(=O)F)cc2Cl)c(Cl)c1`, the T/C by setting is: under setting [2], 119 % of control; under setting [3], 90 % of control; (endpoint: median survival time, dose: 18.75 mg/kg/injection, schedule: Q04DX003 (ip), vehicle: saline, higher = longer survival) 88 % of control; (endpoint: median survival time, dose: 25.0 mg/kg/injection, schedule: Q01DX009 (ip), vehicle: saline, higher = longer survival) 111 % of control; (endpoint: median survival time, dose: 37.5 mg/kg/injection, schedule: Q04DX003 (ip), vehicle: saline, higher = longer survival) 105 % of control; (endpoint: median survival time, dose: 75.0 mg/kg/injection, schedule: Q04DX003 (ip), vehicle: saline, higher = longer survival) 110 % of control. Besides, the T/C (endpoint: median survival time, dose: 150.0 mg/kg/injection, schedule: Q04DX003 (ip), vehicle: saline, higher = longer survival) was 119 % of control.

For the origin of these results see PubChem BioAssay AID194 (DTP/NCI, 2004).
